Experimental data from article PMC9628989 (Antiviral Research, 2007).
Read-outs that look alike come from different tables or passages of the source.

Columns and labels:
[1] = in vivo; cited from earlier work
in vitro [2] = conditions: CD-1, mouse, s9, pH 7.4, Half-life
[3] = mouse, in vivo, po; cited from earlier work
in vitro [4] = conditions: cynomolgus monkey, s9, pH 7.4, Half-life
in vitro [5] = conditions: both, CD-1, mouse, hepatocytes
[6] = human, s9, 0 h, pH 7.4
in vitro [7] = conditions: both, human, hepatocytes
[8] = cynomolgus monkey, s9, 0 h, pH 7.4
[9] = CD-1, mouse, s9, 0 h, pH 7.4
[10] = in vivo; cited from earlier work; remark: listed apart in the source

| SMILES | oral bioavailability [1] | half-life (in vitro [2]) [h] | orally administered drug accounted for in plasma [3] | half-life (in vitro [4]) [min] | half-life (in vitro [5]) [h] | Percentage of CMX001 remaining at incubation time point 0 min [6] [%] | half-life (in vitro [7]) [h] | Percentage of CMX001 remaining at incubation time point 0 min [8] [%] | Percentage of CMX001 remaining at incubation time point 0 min [9] [%] | nephrotoxicity [10] |
| --- | --- | --- | --- | --- | --- | --- | --- | --- | --- | --- |
| Nc1ccn(C[C@@H](CO)OCP(=O)(O)O)c(=O)n1 [CDV, [S]-1-[3-hydroxy-2-phosphonylmethoxypropyl]cytosine] | poor oral bioavailability | – | – | – | – | – | – | – | – | – |
| CCCCCCCCCCCCCCCCOCCCOP(=O)(O)CO[C@H](CO)Cn1ccc(N)nc1=O [CMX001, hexadecyloxypropyl ester of CDV] | – | > 1.67 | approximately 88% | 8 | 3.55 | 100 | 3.8 | 100 | 100 | not been shown to cause nephrotoxicity |
